Experimental data: patent US20110189194A1, “USE OF CD95 INHIBITORS FOR THE TREATMENT OF INFLAMMATORY DISORDERS” (Deutsches Krebsforschungszentrum Stiftung des offentlichen …, priority 2008, published 2011)
Entries after “also recorded” stand apart in the source; their conditions may differ.

Key:
[1] = test system: bone marrow derived neutrophils; test: Two chamber in vitro migration assay, neutrophils; format: cell-based, mouse
Protocol: (§1) Migration of bone marrow derived neutrophils or macrophages was assessed in vitro in a two chamber migration assay. Transwell inserts [3 μm (BD #353096) or 8 μm (BD #353097) pore size for neutrophils or macrophages respectively] were coated with matrigel (50 μg/ml; BD #354234). 5×10^5 neutrophils or macrophages were plated in 500 μl medium onto the upper chamber. Cells were left untreated or treated with CD95L-T4 by adding 10, 20 and 40 ng/ml to the upper chamber. The number of migrated cells was counted 3 hours for neutrophils and 24 hours for macrophages after treatment.
The role of metalloproteinases on neutrophil recruitment was investigated by using selective inhibitors of MMP-2/9. Neutrophils were pre-incubated with MMP-2/9 inhibitor (50 μM; Calbiochem #444251) 30 minutes prior to CD95L-T4 treatment and migrating cells were calculated.
Migration of bone marrow derived neutrophils or macrophages was assessed in vitro in a two chamber migration assay. Transwell inserts [3 μm (BD #353096) or 8 μm (BD #353097) pore size for neutrophils or macrophages, respectively] were coated with matrigel (50 μg/ml; BD #354234). 5×10^5 neutrophils, 1×10^6 dHL60 or 2×10^5 macrophages were plated in 500 μl medium onto the upper chamber. Cells were left untreated or treated with CD95L-T4 (engineered Mus musculus CD95L (Kleber et al., 2008)) by adding 10, 20 and 40 ng/ml to the upper chamber. The number of migrated cells was counted 3 h for neutrophils, 4 h for dHL-60 and 24 h for macrophages after treatment by using a hemocytometer. […] Data of the migration assays are representative of at least 4 independent experiments with 6 technical replicates per condition.
(§2) The role of metalloproteinases on neutrophil and macrophage recruitment was investigated by using selective inhibitors of MMP-2/9. Neutrophils, dHL-60 and macrophages were pre-incubated with MMP-2/9 inhibitors (50 μM; Calbiochem #444251) 30 minutes prior to CD95L-T4 treatment and the number of migrated cells was counted at the times indicated previously.

dHL-60 cells = test: Two chamber in vitro migration assay, dHL-60; format: cell-based, human
Protocol: The human myeloid HL-60 cell line (ACC 3) was kindly provided by Dr. Lucie Darner. PMN-like differentiation of HL-60 cells and the electroporation protocol was described previously. Briefly, HL-60 cells were allowed to differentiate in presence of 1.3% DMSO for 6 days before used for protein analysis. Electroporation of dHL-60 cells was performed at day 4. For electroporation, a 400 μL aliquot of dHL-60 (1×10^7 cells/mL) in RPMI was transferred to a Gene Pulser cuvette with an 0.4-cm electrode (Bio-Rad, Hercules, Calif.) and mixed with […] Syk siRNA ON-TARGETplus SMARTpool siRNA or non-targeting SMARTpool siRNA. Cells were incubated for 10 minutes at room temperature (RT) and subjected to an electroporation pulse of 310 V and 1175 μFF (Gene Pulser Biorad, Munich, Germany). 48 h to 72 h after electroporation, Syk knockdown was assessed by Western Blot. At the same time, cells were stimulated with CD95L-T4 and analysed after 4 h for migration.
Migration of bone marrow derived neutrophils or macrophages was assessed in vitro in a two chamber migration assay. Transwell inserts [3 μm (BD #353096) or 8 μm (BD #353097) pore size for neutrophils or macrophages, respectively] were coated with matrigel (50 μg/ml; BD #354234). 5×10^5 neutrophils, 1×10^6 dHL60 or 2×10^5 macrophages were plated in 500 μl medium onto the upper chamber. Cells were left untreated or treated with CD95L-T4 (engineered Mus musculus CD95L (Kleber et al., 2008)) by adding 10, 20 and 40 ng/ml to the upper chamber. The number of migrated cells was counted 3 h for neutrophils, 4 h for dHL-60 and 24 h for macrophages after treatment by using a hemocytometer. […]
as §2

[2] = test system: bone marrow derived macrophages; test: Two chamber in vitro migration assay, macrophages; format: cell-based, mouse
Protocol: as §1
Transfection of primary macrophages was performed at day 8 in culture with lipofectamine (Invitrogen #11668019) according to the manufacturer's protocol. Briefly, macrophages were transfected with mouse […] Syk siRNA ON-TARGETplus SMARTpool siRNA or a non-targeting SMARTpool siRNA using Lipofectamine 2000. 48 h later Syk knockdown was assessed by Western Blot. At the same time, cells were stimulated with CD95L-T4 and analysed after 24 h for migration, MMP-activity or Western blots.
Migration of bone marrow derived neutrophils or macrophages was assessed in vitro in a two chamber migration assay. […] The number of migrated cells was counted 3 h for neutrophils, 4 h for dHL-60 and 24 h for macrophages after treatment by using a hemocytometer. […]

Syk [3] = test: Western blot, CD95L-induced phosphorylation of Syk in primary macrophages; format: cell-based, mouse
Protocol: (§3) Protein extraction and immunoblotting was performed as previously described. Membranes were probed with the following antibodies: phosphorylated AKT (p-Ser473-AKT, 1:1000, Cell Signaling #9271), total AKT (t-AKT, 1:1000, Cell Signaling #9272), phosphorylated Src (p-Src Tyr 416, 1:1000, Cell Signaling #2101), total Src (1:1000, Cell Signaling #2108), phosphorylated Syk (pSyk Tyr 319/352, 1:1000, Cell Signaling #2701), total Syk (1:1000, Cell Signaling #2712).

Syk [4] = test: Western blot, CD95L-induced phosphorylation of Syk in dHL-60; format: cell-based, human; settings: CD95L 20 and 40 ng/ml
Protocol: as §3

O=C(O)[C@@H](Cc1ccccc1)NS(=O)(=O)c1ccc(-c2ccccc2)cc1 [MMP-2/9 inhibitor]
CD95L-T4 induced migration of neutrophils (in words) [1]: blocked
migration after MMP-2/9 blockade, neutrophils, cell count ± SEM ([1]; CD95L-T4 10 ng/ml, with or without inhibitor 50 μM): 10 ng/ml: 724.69 ± 150.01
migration after MMP-2/9 blockade, neutrophils, cell count ± SEM ([1]; Control (no CD95L-T4), inhibitor 50 μM, 30 min pre-incubation): Control: 713.00 ± 161.89
CD95L-T4 induced migration of dHL-60 (in words) (dHL-60 cells): blocked
migration after MMP-2/9 blockade, dHL-60, cell count ± SEM (dHL-60 cells; CD95L-T4 40 ng/ml, with or without inhibitor 50 μM): 40 ng/ml: 683.09 ± 170.89
migration after MMP-2/9 blockade, dHL-60, cell count ± SEM (dHL-60 cells; Control (no CD95L-T4), inhibitor 50 μM): Control: 658.09 ± 137.65
CD95L-T4 induced migration of macrophages (in words) [2]: blocked
migration after MMP-2/9 blockade, macrophages, cell count ± SEM ([2]; CD95L-T4 20 ng/ml, with or without inhibitor 50 μM): 323.80 ± 100.20

CC(C)(C)n1nc(-c2ccc(Cl)cc2)c2c(N)ncnc21 [PP2]
CD95L-induced phosphorylation of Syk in primary macrophages (Syk [3]): blocked; also recorded: inhibited
CD95L-induced phosphorylation of Syk in dHL-60 (Syk [4]): blocked; also recorded: inhibited
